Data reported in patent publication US7446095B2, “Peptides modulating caspase activation” (priority 2002, dated 2008).
Entries after “also recorded” stand apart in the source; their conditions may differ. Bridges are numbered along the chain shown (N, C = ends). Where no end group is shown, it is not given here.

Columns and labels:
U-937 cells [1] = experiment: Direct effect of peptides on U-937 cell proliferation ([3H]-thymidine incorporation); format: cell-based, human; details: peptides in dose 1 mM; U-937 cell proliferation vs control without additions
Experimental: Cells, cultivated without additions, were taken as a control.
(§1) To assess growth regulative activity of peptides various doses of peptides were added to the cells for 24 h and then the cells were assessed for proliferation, cell viability and DNA-fragmentation. To determine ability of peptides to modulate apoptosis induced by other factors Jurkat cells were treated with 20 ng/ml of CH-11 antibodies without ActD, Raji cells were treated with CH-11 in the presence of 0.5 μg/ml of ActD for 18 h. For induction of apoptosis with TNF-α, cells (Jurkat, MCF7 or U937) were treated for 24 h with 25 ng/ml of the cytokine and then were assessed for proliferation or viability as described above. HepG2 cells were pre-washed before TNF addition with fresh medium to remove endogenous growth factors.

[2] = test system: caspase-3 activation (DEVDase activity); experiment: dATP-dependent Cyt c-induced caspase-3 (DEVDase) activation in cell-free cytosolic extracts of HepG2 cells; format: biochemical, human; details: for Effect on high dose cytochrome c-mediated caspase activation (in words) / Effect on low dose cytochrome c-induced caspase activation (in words): cell-free extracts, 15 min pre-treatment; for Effect on high dose cytochrome c-mediated caspase activation (in words) / Effect on low dose cytochrome c-induced caspase activation (in words) / Effect on the high dose Cyt c-induced caspase activation: peptides 750 μM; for Effect on high dose cytochrome c-mediated caspase activation (in words): high dose (165 nM) cytochrome c; for Effect on low dose cytochrome c-induced caspase activation (in words): low dose (110 nM) cytochrome c; for Effect on the low dose Cyt c-induced caspase activation (abrogation) / Effect on the high dose Cyt c-induced caspase activation / Effect on the low dose Cyt c-induced caspase activation (stimulation, or result in words): DEVDase activity; for Effect on the low dose Cyt c-induced caspase activation (abrogation) / Effect on the high dose Cyt c-induced caspase activation: numbers are % abrogation; for Effect on the low dose Cyt c-induced caspase activation (stimulation, or result in words): numbers are % stimulation
Experimental: Peptides in the concentration of 750 μM were added to the cell extracts 15 min before the cytochrome c addition. Caspase activation was monitored by the cleavage of caspase-3-specific fluorogenic substrate DEVD-AMC.
(§2) HepG2, human hepatocarcinoma cells and human monoblastoma cell line U937 originated from American Type Culture Collection. Cell extracts were prepared by lysing cells in a hypotonic extraction buffer. To obtain the cytosolic S-100 fraction, the cell lysate was centrifuged for 1 h at 100,000×g. Extracts were either used immediately or frozen at −70° C. for later use.
(§3) Cell-free reactions were typically set up in 13-μl reaction volumes. Apoptosis was induced by addition of various doses of bovine heart cytochrom c and/or purified human AFP in the presence of 1 mM dATP. For 13-μl scale reactions, 10 μl of cell extract (˜2-4 mg/ml, as determined by the Bradford assay) were supplemented with 1 μl of dATP, 1 μl of Cyt c and/or AFP solutions in reaction buffer to receive necessary final concentration of reagents. To assess activity of peptides, various doses of peptides being dissolved in the reaction buffer together with 1 mM dATP were added to the cell extracts. To determine ability of the peptides to modulate apoptotic effects of Cyt c and AFP, peptides were added to extracts 10 min before cytochrome c or AFP. Control samples were incubated with the equal volume of the buffer (3 μl) without reagent addition. To initiate apoptosis, extracts were incubated at 37° C. for 40 min.
(§4) At the end of a caspase activation reaction, extract aliquots (5 μl) were supplemented with fluorogenic substrate DEVD-AMC (3 mM) and then incubated for definite time intervals (0.5-1 h) at 37° C. Reactions were terminated by dilution with addition of 2.0 ml of ice-cold 0.2 mM sodium phosphate buffer, pH 7.5, followed by a measurement of fluorescence with a Perkin Elmer MPF-44A (λexc=365 nm and λem=440 nm ) fluorometer. For each sample, the fluorescence intensity was normalized in the respect of cytosolic protein concentration. Caspase activation was presented as the ratio between the normalized fluorescence intensity of the sample and the corresponding value measured with a control sample.
To test ability of various peptides to affect caspase activation induced by exogenous cytochrome c in cell free system, we used cytosolic cell extracts of HepG2 cells. Aliquots of cell extracts were pre-treated with 750 μM of peptides for 15 min and thereafter various doses of cytochrome c was introduced in the reaction mixture to induce caspase activation.

U-937 cells [3] = experiment: Modulation of AFP-induced apoptosis / growth suppression in U-937 cells ([3H]-thymidine incorporation); format: cell-based, human; details: for Effect on AFP-induced apoptosis in whole cells (in words): 15 min peptide pre-treatment, then 3 μM AFP, 24 h
Experimental: Cell proliferation was assessed by [^3H]-thymidine incorporation assay after 24 h of incubation.
The cells were treated for […] with various doses of the peptides and thereafter 3 μM pure human AFP was added to each well. Cell proliferation was assessed by the [^3H]-thymidine incorporation assay after 24 h of incubation.
The cells were treated for 15 min with various doses of the peptide and thereafter 3 μM pure human AFP was added to each well. Cell proliferation was assessed by the [^3H]-thymidine incorporation assay after 24 h of incubation.
U937 cells were plated out at a density of 4×10^3 cells/well in flat-bottom 96-well plates (Costar) in the complete medium and incubated for 2 h before reagent additions. Then cells were treated for 24 h with various doses of AFP dissolved in PBS and then assessed for proliferation. Cell treatment with cytotoxic IgM anti-Fas antibody CH-11 was performed as described. U937 cells were treated with 50 ng/ml of CH-11 antibodies for 18 h. Cells were left untreated or were treated with reagents for adequate time intervals and for the last 4 h of culture were subjected to their [^3H]-thymidine (1 Ci/mmol/well) incorporation. Experimental data were expressed as a percentage of [^3H]-thymidine incorporation in triplicate cultures relative to the medium control. Cells, cultivated without additions, were taken as a control.
as §1

[4] = test system: caspase-3 activation (DEVDase activity); experiment: Cyt c/AFP-mediated caspase-3 activation in cell-free cytosolic extracts of HepG2 cells; format: biochemical, human; details: for Ability to affect AFP-induced Cyt c-dependent caspase activation: DEVDase activity, numbers are % abrogation; for Effect on Cyt c/AFP-mediated caspase-3 activation (in words): cell-free HepG2 cytosolic extracts, 1 mM dATP
Experimental: Caspase activation was monitored by the cleavage of specific caspase-3 fluorogenic substrate DEVD-AMC.
as §2, §3, §4

[5] = test system: caspase-3 activation (DEVDase activity); details: cell-free system, no dATP
Experimental: as §2
Cell-free reactions were typically set up in 13-μl reaction volumes. Apoptosis was induced by addition of various doses of bovine heart cytochrom c and/or purified human AFP in the presence of 1 mM dATP. For 13-μl scale reactions, 10 μl of cell extract (˜2-4 mg/ml, as determined by the Bradford assay) were supplemented with 1 μl of dATP, 1 μl of Cyt c and/or AFP solutions in reaction buffer to receive necessary final concentration of reagents. […]
At the end of a caspase activation reaction, extract aliquots (5 μl) were supplemented with fluorogenic substrate DEVD-AMC (3 mM) and then incubated for definite time intervals (0.5-1 h) at 37° C. Reactions were terminated by dilution with addition of 2.0 ml of ice-cold 0.2 mM sodium phosphate buffer, pH 7.5, followed by a measurement of fluorescence with a Perkin Elmer MPF-44A (λexc=365 nm and λem=440 nm ) fluorometer. For each sample, the fluorescence intensity was normalized in the respect of cytosolic protein concentration. […]

U-937 cells [6] = test system: U-937 cells
[7] = test system: caspase-3 activation (DEVDase activity); experiment: dATP-dependent Cyt c-induced caspase-3 (DEVDase) activation in cell-free cytosolic extracts of HepG2 cells; format: biochemical, human

Molecule	Effect on the cell growth (% of control) (U-937 cells [1])	Effect on high dose cytochrome c-mediated caspase activation (in words) [2]	Effect on low dose cytochrome c-induced caspase activation (in words) [2]	Effect on the high dose Cyt c-induced caspase activation ([2]; cell-free system)	Effect on AFP-induced apoptosis in whole cells (in words) (U-937 cells [3])	Ability to affect AFP-induced Cyt c-dependent caspase activation ([4]; cell-free system)	Effect on the low dose Cyt c-induced caspase activation (stimulation, or result in words) ([2]; cell-free system)	other results
HGDLLE [Linear peptide from HSA]	+20 % of control	significant inhibition	significant abrogation	90% abrogation	did not affect	no effect	–	Effect on the low dose Cyt c-induced caspase activation (abrogation) ([2]; cell-free system): 70% abrogation
*Cys-Cys-His-Gly-Asp-Leu-Leu-Glu-Cys* (CCHGDLLEC; disulfide 1-9) [Cyclic peptide from human serum albumin]	+18 % of control	no activity	no effect	no effect	no activity	no effect	no effect	–
*Cys-Gly-His-Gly-Asp-Leu-Leu-Glu-Cys* (CGHGDLLEC; disulfide 1-9 (inferred)) [Cyclic peptide from HSA, Cys substituted for Gly]	–	–	–	–	did not affect	–	–	–
*Cys-Gly-Arg-Gly-Asp-Val-Leu-Asp-Cys*	−12 % of control	no activity	no effect	no effect	failed to abrogate; also recorded: no activity	no effect	no effect	–
RGDVLD [Linear 6-mer peptide from AFP]	+10 % of control	significant inhibition	significant abrogation	80% abrogation	did not revealed any apoptosis-regulating activity; also recorded: incapable of regulation	no effect	–	Effect on the low dose Cyt c-induced caspase activation (abrogation) ([2]; cell-free system): 30-50%; Retention of apocyclin-A's modulation of Cyt c-mediated caspase activation in a cell-free system (in words) ([2]; summary statement): partially retained this activity; Effect on AFP-induced apoptosis in whole cells (in words) (U-937 cells [3]; listed as p25): not in the whole cells; Effect on Cyt c/AFP-mediated caspase-3 activation (in words) [4]: able to abrogate
*Cys-*Cys-Arg-Gly-Asp-Val-Leu-Asp-Cys* [apocyclin-A]	+12 % of control	decreased; also recorded: significantly inhibited; also recorded: practically completely abrogated; also recorded: significant inhibition	significantly enhanced; also recorded: moderately supported; also recorded: notably enhanced; also recorded: same stimulation as full-length AFP molecule	50-80%	completely abrogates; also recorded: completely cancelled	70-80%	30% stimulation	Inhibition of caspase activation induced by high doses of endogenous cytochrome c ([2]; peptide 750 μM, cell-free system): 50-70%; Stimulation of proliferation relatively to the medium control (U-937 cells [3]; 15-min pre-treatment with 1 mM, 24-h cultivation): 15%; Induction of DEVD-ase activity without dATP addition (in words) [5]: unable to induce; Abrogation of the total anti-Fas-mediated apoptosis effect (U-937 cells [6]; 0.5 mM peptide, U-937 cells, various doses of CH-11): about 50%; Inhibition of anti-Fas-induced apoptosis (in words) (U-937 cells [6]; peptide concentration up to 1 mM, U-937 cells): more significant inhibition; Inhibition of anti-Fas-mediated cell death (in words) (U-937 cells [6]; summary statement, concentration not given): significantly inhibits; Effect on Cyt c/AFP-mediated caspase-3 activation (in words) [4]: abrogates; also recorded: cancelled; Inhibition of Cyt c/AFP-mediated caspase activation ([4]; cell-free system, combined cytochrome c/AFP treatment): 60-80%
AFP: Human alpha-fetoprotein isolated from the cord serum, purity not less than 99.8% (protein, UniProt P02771 19-609, looked up) Alpha-fetoprotein: RTLHRNEYGIASILDSYQCTAEISLADLATIFFAQFVQEATYKEVSKMVKDALTAIEKPTGDEQSSGCLENQLPAFLEELCHEKEILEKYGHSDCCSQSEEGRHNCFLAHKKPTPASIPLFQVPEPVTSCEAYEEDRETFMNKFIYEIARRHPFLYAPTILLWAARYDKIIPSCCKAENAVECFQTKAATVTKELRESSLLNQHACAVMKNFGTRTFQAITVTKLSQKFTKVNFTEIQKLVLDVAHVHEHCCRGDVLDCLQDGEKIMSYICSQQDTLSNKITECCKLTTLERGQCIIHAENDEKPEGLSPNLNRFLGDRDFNQFSSGEKNIFLASFVHEYSRRHPQLAVSVILRVAKGYQELLEKCFQTENPLECQDKGEEELQKYIQESQALAKRSCGLFQKLGEYYLQNAFLVAYTKKAPQLTSSELMAITRKMAATAATCCQLSEDKLLACGEGAADIIIGHLCIRHEMTPVNPGVGQCCTSSYANRRPCFSSLVVDETYVPPAFSDDKFIFHKDLCQAQGVALQTMKQEFLINLVKQKPQITEEQLEAVIADFSGLLEKCCQGQEQEVCFAEEGQKLISKTRAALGV	–	–	–	80% abrogation	–	–	50% stimulation	Caspase activation in 'silent' cytosolic extracts with low suboptimal dose of exogenous cyt-c and dATP (in words) ([7]; AFP 7 μM, time-dependent, up to two hours): triggered the process of caspase activation; Caspase activation in the absence of dATP (in words) ([7]; S100 cytosolic extract, no dATP): did not induce any caspase activation; Induction of caspase-3-specific DEVDase activity in S100 cytosolic extract (in words) ([7]; protein 7 μM with dATP 1 mM, no exogenous cyt-c, up to 2 h): triggered dATP-dependent induction
